According to PMC7253177, “Gain of channel function and modified gating properties in TRPM3 mutants causing intellectual disability and epilepsy” (eLife, 2020):

Assays:
TRPM3 P1090Q mutant = molecular target: T1, TRPM3 P1090Q mutant (Homo sapiens, UniProt Q9HCF6, P1115Q)
T1 sequence (Q9HCF6 1-1325 isoform Q9HCF6-10 P1090Q): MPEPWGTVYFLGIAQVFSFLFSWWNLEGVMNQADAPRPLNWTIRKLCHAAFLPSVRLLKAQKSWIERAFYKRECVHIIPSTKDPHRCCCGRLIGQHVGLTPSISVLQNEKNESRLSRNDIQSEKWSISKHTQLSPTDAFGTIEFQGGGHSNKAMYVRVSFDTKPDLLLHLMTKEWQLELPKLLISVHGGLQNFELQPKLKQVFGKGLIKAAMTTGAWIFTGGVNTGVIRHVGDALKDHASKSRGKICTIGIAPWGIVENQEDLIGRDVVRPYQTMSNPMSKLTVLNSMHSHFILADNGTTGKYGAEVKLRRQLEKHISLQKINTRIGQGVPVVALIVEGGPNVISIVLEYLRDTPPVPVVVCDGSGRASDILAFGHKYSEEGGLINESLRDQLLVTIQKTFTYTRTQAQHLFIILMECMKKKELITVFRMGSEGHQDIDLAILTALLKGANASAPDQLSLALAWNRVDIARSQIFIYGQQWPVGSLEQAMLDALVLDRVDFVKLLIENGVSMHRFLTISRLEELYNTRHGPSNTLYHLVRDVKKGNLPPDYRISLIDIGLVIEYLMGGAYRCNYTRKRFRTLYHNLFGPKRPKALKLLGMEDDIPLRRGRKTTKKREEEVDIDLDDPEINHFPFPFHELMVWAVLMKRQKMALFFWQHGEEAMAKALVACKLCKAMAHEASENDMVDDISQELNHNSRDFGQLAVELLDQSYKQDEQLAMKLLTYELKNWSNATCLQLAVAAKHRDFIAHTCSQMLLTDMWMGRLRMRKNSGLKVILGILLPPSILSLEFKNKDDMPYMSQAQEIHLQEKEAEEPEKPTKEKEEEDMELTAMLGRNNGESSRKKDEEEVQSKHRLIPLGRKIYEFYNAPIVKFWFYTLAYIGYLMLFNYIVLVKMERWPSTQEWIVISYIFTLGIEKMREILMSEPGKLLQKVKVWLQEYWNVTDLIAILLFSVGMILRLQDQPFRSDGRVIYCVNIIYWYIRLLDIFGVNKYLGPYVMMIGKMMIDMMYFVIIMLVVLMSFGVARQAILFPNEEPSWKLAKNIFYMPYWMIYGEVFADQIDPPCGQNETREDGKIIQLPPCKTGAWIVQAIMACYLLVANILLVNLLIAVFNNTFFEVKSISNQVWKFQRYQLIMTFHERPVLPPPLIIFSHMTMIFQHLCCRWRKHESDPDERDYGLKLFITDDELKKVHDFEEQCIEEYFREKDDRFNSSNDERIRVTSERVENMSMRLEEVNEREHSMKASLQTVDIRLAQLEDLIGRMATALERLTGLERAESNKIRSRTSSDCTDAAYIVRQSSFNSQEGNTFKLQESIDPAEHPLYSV
Method: (§1) HEK293T cells ([Graham et al., 1977]) were cultured as described previously ([Vriens et al., 2007]) and used up in passage number 14. HEK293T cells were tested for the lack of mycoplasma and transiently transfected with 2 µg of DNA using TransIT transfection reagent (Mirus) 36–48 hr before the measurements. In case of co-cultures a ratio of 1:1 between hTRPM3-YFP WT and mutants-YFP DNA was used.
All mutants were obtained by the standard PCR overlap extension method using hTRPM3 directly linked to YFP from pCAGGS/IRES-GFP vector ([Vriens et al., 2007]). Accuracy of all mutant sequences was verified by sequencing of the entire DNA constructs.
Standard whole-cell patch-clamp recordings were performed with an EPC-10 amplifier and the PatchMasterPro Software (HEKA Elektronik, Lambrecht, Germany). Current measurements were performed at a sampling rate of 20 kHz and currents were digitally filtered at 2.9 kHz. In all measurements, 70% of the series resistance was compensated. The standard internal solution contained (in mM): 100 CsAsp, 45 CsCl, 10 EGTA, 10 HEPES, 1 MgCl2 (pH 7.2 with CsOH) or 140 potassium gluconate, 5 EGTA, 1 MgCl2, 10 HEPES and 2 NaATP (pH 7.3 with CsOH) for the measurements of Gβγ mediated inhibition and the standard extracellular solution contained (in mM): 150 NaCl, 1 MgCl2, 10 HEPES (pH 7.4 with NaOH). The standard patch pipette resistance was between 2 MΩ and 4 MΩ when filled with pipette solution. In experiments allowing Ca^2+-dependent desensitization of TRPM3, Mg^2+ was replaced by Ca^2+ in the extracellular solution, and Cs^+ was replaced by Na^+ in the pipette solution. […] The chemical ligands were dissolved in bath solution from a stock diluted in DMSO.

WT:V990M TRPM3 mixture = experiment: Whole-cell patch clamp, HEK293T cells co-transfected with WT and V990M TRPM3 (1:1); type: cell-based, human; conditions: WT:V990M 1:1; Clt 10 µM
Source text: (§2) Considering that all reported DEE patients were heterozygous for the TRPM3 substitutions ([Dyment et al., 2019]), and that TRPM3 is functional as a tetramer, it can be expected that patient cells express a mixture of WT and mutant channel subunits, potentially leading to the formation of heteromultimeric channels with variable stoichiometry. To mimic the heterozygous condition in vitro, we performed a limited number of experiments in cells co-transfected with a mixture of cDNA encoding WT and mutant TRPM3 in a 1:1 ratio.
as §1
(§3) Standard whole-cell patch-clamp recordings were performed with an EPC-10 amplifier and the PatchMasterPro Software (HEKA Elektronik, Lambrecht, Germany). Current measurements were performed at a sampling rate of 20 kHz and currents were digitally filtered at 2.9 kHz. In all measurements, 70% of the series resistance was compensated. […]

WT:P1090Q TRPM3 mixture = experiment: Whole-cell patch clamp, HEK293T cells co-transfected with WT and P1090Q TRPM3 (1:1); type: cell-based, human; conditions: WT:P1090Q 1:1; Clt 10 µM, PS 40 µM
Source text: as §2, §1, §3

CCC1(c2ccccc2)C(=O)NCNC1=O [primidone]
Inhibition of PS-activated inward and outward currents (TRPM3 P1090Q mutant; primidone 25 µM, PS 40 µM, ±80 mV, cells co-expressing µ-opioid receptor): full inhibition

Clc1ccccc1C(c1ccccc1)(c1ccccc1)n1ccnc1 [Clt, clotrimazole]
Activation of whole-cell currents in the absence of PS (TRPM3 P1090Q mutant; Clt 10 µM): did not activate currents
Effect on the response to PS (whole-cell currents) (TRPM3 P1090Q mutant; Clt 10 µM, PS 40 µM): inhibited the response to PS
Activation of whole-cell currents in the absence of PS (WT:V990M TRPM3 mixture): activated robust currents
Effect of pre-incubation on PS responses (whole-cell currents) (WT:P1090Q TRPM3 mixture): first a potentiation of the PS responses by pre-incubation of Clt, followed by a time-dependent current inhibition
